The source of these data is patent US20020159980A1, “Benomyl tolerant fusarium lateritium and uses thereof” (priority 2001, published 2002).

The test system of test [1] is E. lata. As to the kind of experiment: Grapevine bioassays in the presence of benomyl: E. lata colonization. It is filed as cell-based, Eutypa lata. Conditions: 26° C., 10 days; for E. lata colonization: treatment E. lata alone. As to the method:
Bioassays were also completed to evaluate the tolerance of the BR F. lateritium strain and E. lata to benomyl when applied to grapevine segments. Benomyl concentrations tested included 0, 10, 100 and 1000 μg/ml at 50 μl aliquots per segment. Bioassays were inoculated with 20 μl aliquots of broth from 4 to 5 day old shake flask cultures of BR F. lateritium and E. lata. The F. lateritium shake flask cultures yielded approximately 4.5×10^5 cells/ml. Segments were inoculated first with benomyl and then with E. lata and BR F. lateritium. All inoculations were completed within one hour in a laminar flow hood. These bioassays were incubated at 26° C. for 10 days.
After incubation, segments were removed from the water agar, split in half and surface disinfected for ½ hour in a 2.5% sodium hypochlorite solution. The split segments were plated on PDA and monitored for E. lata presence after 5 days. All bioassays were performed in triplicate. Positive and negative controls were performed for each bioassay. Mean percent infection levels and standard errors about the mean were calculated for each treatment.

The subject of test [2] is F. lateritium and E. armeniacae. Particulars: reported by Carter et al.; cited from earlier work.

As for `CCCCNC(=O)n1c(NC(=O)OC)nc2ccccc21` [benomyl, 1-(butylcarbomyl)-2-benzimidazole carbamate], in test [1] (grapevine segments), the “benomyl concentration applied to the segments at which E. lata did not colonize” value is reported as “exceeded 100 μg/ml”. For the same compound, the figures for the E. lata colonization in test [1] (benomyl 10 μg/ml), in test [1] (benomyl 100 μg/ml) and in test [1] (benomyl 1000 μg/ml) were 100%, 90% and 0%, respectively. In addition, the “differential sensitivities of F. lateritium and E. armeniacae to benomyl” value in test [2] is “approximately 10 fold”.
